Experimental data reported in publication PMC10167921 (Biochemical pharmacology, 2021).
Values after ≈ are worked out from the molar mass of the structure shown. Values joined by “and” are separate entries in the source; they are usually repeats but may differ in a detail not shown here. Equal entries are not always repeated. Where a SMILES comes first, the peptide text is derived from it. Bridges are numbered along the chain shown (N, C = ends). Where no end group is shown, it is not given here. [ ]: non-standard residue; d: D form. The star is where a group is joined. X1 = CC[C@H](C)CCCCC(=O)*; Dab = NCC[C@H](N)C(=O)O

Columns and labels:
E.coli ATCC 259922 = experiment: Antimicrobial assay; assay type: cell-based, Escherichia coli; conditions: CaMHB, 5 × 10^5 CFU mL^−1, 37 °C, 20 h, visual, duplicate
HEK293 cells = experiment: Cytotoxicity assay; assay type: cell-based; conditions: HEK293, 24 h at 37 °C, resazurin fluorescence; two independent experiments of duplicate assays (n = 2)
human red blood cells = experiment: Hemolysis assay; assay type: cell-based
B. subtilis ATCC 6051 = experiment: microbe, parasite or virus in culture; assay type: cell-based, Bacillus subtilis; conditions: for Minimum inhibitory concentration: B. subtilis ATCC 6051, CaMHB, 5 × 10^5 CFU mL^−1, 37 °C, 20 h, visual, duplicate
S. aureus ATCC 43300 = experiment: microbe, parasite or virus in culture; assay type: cell-based, Staphylococcus aureus; conditions: for Minimum inhibitory concentration: S. aureus ATCC 43300, CaMHB, 5 × 10^5 CFU mL^−1, 37 °C, 20 h, visual, duplicate
[1] = test system: Gram negative and Gram-positive bacterial pathogens; experiment: Antimicrobial assay, summary over the bacterial panel; assay type: cell-based; conditions: range over both strains

Compound	Minimum inhibitory concentration (E.coli ATCC 259922)	Cytotoxicity (CC50), 50% death of HEK293 cells (HEK293 cells)	Hemolysis at fixed concentration (human red blood cells; 100 μM peptide)	Minimum inhibitory concentration (B. subtilis ATCC 6051)	Minimum inhibitory concentration (S. aureus ATCC 43300)	MIC (B. subtilis ATCC 6051; Bacillus subtilis, ATCC6051, 20 h, read-out: Minimum inhibitory concentration)	MIC (S. aureus ATCC 43300; Staphylococcus aureus, ATCC43300, 20 h, read-out: Minimum inhibitory concentration)	Hemolysis at fixed concentration (human red blood cells; 300 μM peptide)	MIC against Gram-positive bacteria (Staphylococcus aureus and B. subtilis) [1]
CC[C@H](C)CCCCC(=O)N[C@@H](CCN)C(=O)N[C@H](C(=O)N[C@@H](CCN)C(=O)N[C@H]1CCNC(=O)[C@H]([C@@H](C)O)NC(=O)[C@H](CCN)NC(=O)[C@H](CCN)NC(=O)[C@H](CC(C)C)NC(=O)[C@@H](CC(C)C)NC(=O)[C@H](CCN)NC1=O)[C@@H](C)O [Colistin, colistin, reference compound] (X1-[Dab]T[Dab][Dab][Dab][dL]L[Dab][Dab]T; lactam 4-C (inferred); N-terminus assumed)	0.02 to 0.11 µM	–	–	–	–	–	–	–	–
FVKELWDKVKKMGSAAWSAAKGAFA [Nc2a]	11.7 to 46.9 µM	> 40 µM and 48.2 to 56.9 µM	no hemolysis	5.9 to 11.8 µM	>40 µM	–	–	–	–
CN[C@H](CC(C)C)C(=O)N[C@H]1C(=O)N[C@@H](CC(N)=O)C(=O)N[C@H]2C(=O)N[C@H]3C(=O)N[C@H](C(=O)N[C@H](C(=O)O)c4cc(O)cc(O)c4-c4cc3ccc4O)[C@H](O)c3ccc(c(Cl)c3)Oc3cc2cc(c3O[C@@H]2O[C@H](CO)[C@@H](O)[C@H](O)[C@H]2O[C@H]2C[C@](C)(N)[C@H](O)[C@H](C)O2)Oc2ccc(cc2Cl)[C@H]1O [Vancomycin, vancomycin, reference compound]	–	–	–	–	–	0.17 to 0.35 µM (≈ 0.246 to 0.507 µg/mL)	0.69 to 1.38 µM (≈ 1 to 2 µg/mL)	–	–
AGTKEWLNKAKDFIKEKGLGMLSAAANAALN [Nc3b]	>40 µM	–	no hemolysis	>40 µM	>40 µM	–	–	no hemolysis	–
GWKDWLNKAKDFIKEKGPEILRAAANAAIN [Nc3a]	2.3 to 4.7 µM	–	no hemolysis	1.48 to 2.9 µM	23.7 to 47.4 µM	–	–	–	–
FWGAAAKMLGKALPGLISMFQKN [Nc1a]	25.8 to 51.6 µM	12.6 to 13.5 µM	–	1.48 to 5.9 µM	2.9 to 5.9 µM	–	–	–	1.48 to 5.9 µM
FLGALLKIGAKLLPSVVGLFKKKQQ [Na1b]	5.9 to 11.8 µM	4.5 to 5.9 µM	–	0.18 to 2.9 µM	0.3 to 5.9 µM	–	–	–	–
